Measurements from ChEMBL document CHEMBL1201862, “PubChem BioAssay data set” (2004).
Blank lines part the entries; values can stand above or below the compound they belong to. The source made the active and inactive calls.

Experiments:
Assay type in all cases: functional
[1] = biological target: Melanin-concentrating hormone receptor 1 (Homo sapiens, UniProt Q99705); assay: Late-stage fluorescence-based counterscreen for antagonists of the G-protein coupled receptor 7 (GPR7): cell-based dose response assay to identify antagonists of the melanin-concentrating hormone receptor 1 (MCHR1) Set 6.
[2] = biological target: Neuropeptides B/W receptor type 1 (Homo sapiens, UniProt P48145); assay: human NPBW1 receptor blockade, IC50 – cell-based, fluorescence, dose response, set 6, late-stage follow-up (AID 588583)
[3] = biological target: Hepatocyte growth factor receptor (Homo sapiens, UniProt P08581);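 note: kinase panel profiling across the kinome, with MET as the panel member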
Activin receptor type-1 = Activin receptor type-1 (Homo sapiens, UniProt Q04771); assay: Navigating the Kinome. Panel member name: ACVR1
[4] = biological target: Dual specificity mitogen-activated protein kinase kinase 2 (Homo sapiens, UniProt P36507); assay: Navigating the Kinome. Panel member name: MAP2K2
[5] = biological target: Leukocyte tyrosine kinase receptor (Homo sapiens, UniProt P29376); assay: Navigating the Kinome. Panel member name: LTK
[6] = biological target: cAMP-dependent protein kinase catalytic subunit PRKX (Homo sapiens, UniProt P51817)
Aurora kinase A = Aurora kinase A (Homo sapiens, UniProt O14965);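 note: value from the Navigating the Kinome kinase panel profiling, panel entry STK6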
[7] = biological target: Calcium/calmodulin-dependent protein kinase type II subunit alpha (Homo sapiens, UniProt Q9UQM7); assay: Navigating the Kinome. Panel member name: CAMK2A
[8] = biological target: Tyrosine-protein kinase receptor TYRO3 (Homo sapiens, UniProt Q06418);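 note: TYRO3 value obtained as one member of a kinome-wide profiling panel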
[9] = biological target: Vascular endothelial growth factor receptor 1 (Homo sapiens, UniProt P17948);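 note: measured within a kinome-wide profiling panel, FLT1 as the panel member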
[10] = biological target: Serine/threonine-protein kinase Chk1 (Homo sapiens, UniProt O14757);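 note: measured as one member of a kinome-wide kinase profiling panel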
[11] = biological target: cAMP-dependent protein kinase catalytic subunit alpha (Homo sapiens, UniProt P17612)
[12] = biological target: Serine/threonine-protein kinase TAO1 (Homo sapiens, UniProt Q7L7X3)
[13] = biological target: Cyclin-dependent kinase 7 (Homo sapiens, UniProt P50613);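 note: value comes from a kinome-wide kinase profiling panel in which CDK7 is one member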
[14] = biological target: Serine/threonine-protein kinase Nek2 (Homo sapiens, UniProt P51955)
[15] = biological target: Death-associated protein kinase 3 (Homo sapiens, UniProt O43293);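 note: measured as one member of a kinome-wide profiling panel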
[16] = biological target: Dual specificity protein kinase CLK2 (Homo sapiens, UniProt P49760)
[17] = biological target: Mitogen-activated protein kinase kinase kinase kinase 2 (Homo sapiens, UniProt Q12851);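 note: measured as one member of a kinome-wide kinase panel, with MAP4K2 as the panel entry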
[18] = biological target: Dual specificity mitogen-activated protein kinase kinase 1 (Homo sapiens, UniProt Q02750); assay: Navigating the Kinome. Panel member name: MAP2K1
[19] = biological target: Platelet-derived growth factor receptor alpha (Homo sapiens, UniProt P16234); assay: Navigating the Kinome. Panel member name: PDGFRA
[20] = biological target: 5'-AMP-activated protein kinase catalytic subunit alpha-1 (Homo sapiens, UniProt Q13131)
[21] = biological target: Fibroblast growth factor receptor 1 (Homo sapiens, UniProt P11362)
[22] = biological target: Glycogen synthase kinase-3 alpha (Homo sapiens, UniProt P49840);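 note: GSK3A result taken from a broad kinome-wide kinase panel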
[23] = biological target: Mitogen-activated protein kinase kinase kinase kinase 4 (Homo sapiens, UniProt O95819)
[24] = biological target: Rho-associated protein kinase 1 (Homo sapiens, UniProt Q13464);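 note: measured within a broad kinome-wide panel profiling many kinases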
[25] = biological target: Macrophage colony-stimulating factor 1 receptor (Homo sapiens, UniProt P07333);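 note: value comes from the Navigating the Kinome screening panel, CSF1R member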
[26] = biological target: Cyclin-dependent kinase 8 (Homo sapiens, UniProt P49336); assay: Navigating the Kinome. Panel member name: CDK8
Activated CDC42 kinase 1 = Activated CDC42 kinase 1 (Homo sapiens, UniProt Q07912); assay: Navigating the Kinome. Panel member name: ACK1
[27] = biological target: Serine/threonine-protein kinase pim-1 (Homo sapiens, UniProt P11309)
[28] = biological target: Mitogen-activated protein kinase 8 (Homo sapiens, UniProt P45983);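 note: value comes from one member of a kinome-wide kinase profiling panel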
[29] = biological target: Casein kinase I isoform alpha (Homo sapiens, UniProt P48729)
[30] = biological target: Inhibitor of nuclear factor kappa-B kinase subunit epsilon (Homo sapiens, UniProt Q14164); assay: Navigating the Kinome. Panel member name: IKBKE
[31] = biological target: Dual specificity tyrosine-phosphorylation-regulated kinase 1B (Homo sapiens, UniProt Q9Y463); assay: Navigating the Kinome. Panel member name: DYRK1B
Aurora kinase B = Aurora kinase B (Homo sapiens, UniProt Q96GD4)
[32] = biological target: Tyrosine-protein kinase ABL1 (Homo sapiens, UniProt P00519)
[33] = biological target: Dual specificity tyrosine-phosphorylation-regulated kinase 1A (Homo sapiens, UniProt Q13627);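 note: measured against DYRK1A as one member of a broad kinome profiling panel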
[34] = biological target: Serine/threonine-protein kinase D3 (Homo sapiens, UniProt O94806);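 note: determined within a kinase panel screen, with PRKCN as the panel member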
[35] = biological target: Tyrosine-protein kinase JAK2 (Homo sapiens, UniProt O60674);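 note: JAK2 tested as one member of a kinase panel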
[36] = biological target: Dual specificity protein kinase CLK4 (Homo sapiens, UniProt Q9HAZ1)
LIM domain kinase 1 = LIM domain kinase 1 (Homo sapiens, UniProt P53667); assay: Navigating the Kinome. Panel member name: LIMK1
[37] = biological target: Proto-oncogene tyrosine-protein kinase receptor Ret (Homo sapiens, UniProt P07949);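 note: measured within a kinome-wide profiling panel, RET as the panel member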
[38] = biological target: Cyclin-dependent kinase 9 (Homo sapiens, UniProt P50750);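 note: value from the CDK9 entry of a kinome-spanning kinase panel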
[39] = biological target: Leucine-rich repeat serine/threonine-protein kinase 2 (Homo sapiens, UniProt Q5S007);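 note: value from a broad kinome-wide panel profiling study in which LRRK2 was one of the kinases tested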
[40] = biological target: ALK tyrosine kinase receptor (Homo sapiens, UniProt Q9UM73);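 note: ALK tested as one member of a kinase panel screen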
[41] = biological target: BDNF/NT-3 growth factors receptor (Homo sapiens, UniProt Q16620);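 note: NTRK2 measured as one member of a broad kinome-wide kinase profiling panel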
[42] = biological target: Serine/threonine-protein kinase PAK 4 (Homo sapiens, UniProt O96013);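 note: value obtained within a kinome profiling panel in which PAK4 was one of the panel members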
[43] = biological target: Protein kinase C theta type (Homo sapiens, UniProt Q04759); assay: Navigating the Kinome. Panel member name: PRKCQ
[44] = biological target: Macrophage-stimulating protein receptor (Homo sapiens, UniProt Q04912); assay: Navigating the Kinome. Panel member name: MST1R
[45] = biological target: Glycogen synthase kinase-3 beta (Homo sapiens, UniProt P49841);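 note: value comes from a broad kinome profiling panel, with GSK3B as the panel member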
[46] = biological target: Serine/threonine-protein kinase TBK1 (Homo sapiens, UniProt Q9UHD2); assay: Navigating the Kinome. Panel member name: TBK1
[47] = biological target: Vascular endothelial growth factor receptor 2 (Homo sapiens, UniProt P35968)
[48] = biological target: Cyclin-dependent kinase 19 (Homo sapiens, UniProt Q9BWU1); assay: Navigating the Kinome. Panel member name: CDC2L6
[49] = biological target: Interleukin-1 receptor-associated kinase 1 (Homo sapiens, UniProt P51617);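 note: IRAK1 tested as one member of a kinome panel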
[50] = biological target: Casein kinase II subunit alpha (Homo sapiens, UniProt P68400)
[51] = biological target: Testis-specific serine/threonine-protein kinase 2 (Homo sapiens, UniProt Q96PF2);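 note: part of the Navigating the Kinome panel, target entry STK22B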
[52] = biological target: Serine/threonine-protein kinase MRCK alpha (Homo sapiens, UniProt Q5VT25)
[53] = biological target: Calcium/calmodulin-dependent protein kinase type II subunit beta (Homo sapiens, UniProt Q13554)
[54] = biological target: Serine/threonine-protein kinase DCLK1 (Homo sapiens, UniProt O15075);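 note: affinity for DCLK1 (listed as DCAMKL1) measured as one member of a kinome-wide kinase profiling panel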
[55] = biological target: Interleukin-1 receptor-associated kinase 4 (Homo sapiens, UniProt Q9NWZ3)
[56] = biological target: Mitogen-activated protein kinase 13 (Homo sapiens, UniProt O15264)
[57] = biological target: Casein kinase I isoform delta (Homo sapiens, UniProt P48730);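 note: measured as one member (CSNK1D) of a kinome panel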
[58] = biological target: Mitogen-activated protein kinase 1 (Homo sapiens, UniProt P28482)
[59] = biological target: Calcium/calmodulin-dependent protein kinase type II subunit delta (Homo sapiens, UniProt Q13557)
[60] = biological target: Calcium/calmodulin-dependent protein kinase kinase 2 (Homo sapiens, UniProt Q96RR4); assay: Navigating the Kinome. Panel member name: CAMKK2
[61] = biological target: Homeodomain-interacting protein kinase 2 (Homo sapiens, UniProt Q9H2X6);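 note: measured within a kinome-wide kinase profiling panel, HIPK2 being one panel member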
SRSF protein kinase 1 = SRSF protein kinase 1 (Homo sapiens, UniProt Q96SB4);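 note: measured as one member of a kinome-wide kinase profiling panel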
[62] = biological target: Phosphorylase b kinase gamma catalytic chain, liver/testis isoform (Homo sapiens, UniProt P15735);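 note: PHKG2 measured as one member of a kinome-wide kinase panel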
[63] = biological target: Tyrosine-protein kinase Fyn (Homo sapiens, UniProt P06241)
[64] = biological target: Testis-specific serine/threonine-protein kinase 1 (Homo sapiens, UniProt Q9BXA7)
[65] = biological target: Tyrosine-protein kinase JAK3 (Homo sapiens, UniProt P52333)
[66] = biological target: Casein kinase I isoform gamma-1 (Homo sapiens, UniProt Q9HCP0);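 note: measured as the CSNK1G1 member of a kinome profiling panel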
[67] = biological target: RAC-gamma serine/threonine-protein kinase (Homo sapiens, UniProt Q9Y243)
[68] = biological target: Serine/threonine-protein kinase 3 (Homo sapiens, UniProt Q13188);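 note: measured as one member of a kinome-wide kinase panel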
[69] = biological target: Serine/threonine-protein kinase pim-2 (Homo sapiens, UniProt Q9P1W9);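 note: value comes from a broad kinase panel profiling study in which PIM2 was one of the panel members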
Focal adhesion kinase 1 = Focal adhesion kinase 1 (Homo sapiens, UniProt Q05397);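 note: measured as one member of a kinome panel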
[70] = biological target: Proto-oncogene tyrosine-protein kinase ROS (Homo sapiens, UniProt P08922);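 note: ROS1 tested as one member of a kinome-wide kinase panel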
[71] = biological target: Receptor tyrosine-protein kinase erbB-4 (Homo sapiens, UniProt Q15303);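 note: ERBB4 member of a kinome-wide kinase profiling panel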
[72] = biological target: Homeodomain-interacting protein kinase 4 (Homo sapiens, UniProt Q8NE63)

Sequence of Platelet-derived growth factor receptor alpha (P16234 whole entry): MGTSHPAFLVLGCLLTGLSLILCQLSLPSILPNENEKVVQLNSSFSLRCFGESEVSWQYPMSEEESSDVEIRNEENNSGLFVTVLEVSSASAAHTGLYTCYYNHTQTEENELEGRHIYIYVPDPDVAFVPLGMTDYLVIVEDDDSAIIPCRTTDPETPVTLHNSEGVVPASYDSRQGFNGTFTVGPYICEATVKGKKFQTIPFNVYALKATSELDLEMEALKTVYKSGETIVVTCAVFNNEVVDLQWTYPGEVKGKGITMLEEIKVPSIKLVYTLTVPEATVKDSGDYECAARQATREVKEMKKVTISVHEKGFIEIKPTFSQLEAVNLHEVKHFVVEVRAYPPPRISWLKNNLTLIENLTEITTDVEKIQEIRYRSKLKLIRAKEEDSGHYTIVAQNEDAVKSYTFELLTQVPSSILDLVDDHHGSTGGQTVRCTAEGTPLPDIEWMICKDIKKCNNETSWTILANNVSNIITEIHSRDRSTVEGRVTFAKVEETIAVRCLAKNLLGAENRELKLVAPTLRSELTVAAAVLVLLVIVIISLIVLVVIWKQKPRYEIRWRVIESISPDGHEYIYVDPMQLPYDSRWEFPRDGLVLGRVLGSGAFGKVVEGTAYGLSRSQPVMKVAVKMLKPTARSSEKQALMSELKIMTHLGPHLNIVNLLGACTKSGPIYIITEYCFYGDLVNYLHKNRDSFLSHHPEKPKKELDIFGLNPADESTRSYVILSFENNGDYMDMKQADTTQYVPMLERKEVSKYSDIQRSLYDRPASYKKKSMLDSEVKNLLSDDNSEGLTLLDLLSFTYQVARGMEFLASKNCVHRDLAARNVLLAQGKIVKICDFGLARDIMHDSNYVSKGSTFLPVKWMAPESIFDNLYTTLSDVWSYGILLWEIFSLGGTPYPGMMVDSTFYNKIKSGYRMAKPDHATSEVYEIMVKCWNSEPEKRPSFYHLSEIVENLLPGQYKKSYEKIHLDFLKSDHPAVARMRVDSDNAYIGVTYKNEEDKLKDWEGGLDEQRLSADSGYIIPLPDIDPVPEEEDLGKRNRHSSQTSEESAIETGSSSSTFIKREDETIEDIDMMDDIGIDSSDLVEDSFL
Sequence of BDNF/NT-3 growth factors receptor (Q16620 whole entry): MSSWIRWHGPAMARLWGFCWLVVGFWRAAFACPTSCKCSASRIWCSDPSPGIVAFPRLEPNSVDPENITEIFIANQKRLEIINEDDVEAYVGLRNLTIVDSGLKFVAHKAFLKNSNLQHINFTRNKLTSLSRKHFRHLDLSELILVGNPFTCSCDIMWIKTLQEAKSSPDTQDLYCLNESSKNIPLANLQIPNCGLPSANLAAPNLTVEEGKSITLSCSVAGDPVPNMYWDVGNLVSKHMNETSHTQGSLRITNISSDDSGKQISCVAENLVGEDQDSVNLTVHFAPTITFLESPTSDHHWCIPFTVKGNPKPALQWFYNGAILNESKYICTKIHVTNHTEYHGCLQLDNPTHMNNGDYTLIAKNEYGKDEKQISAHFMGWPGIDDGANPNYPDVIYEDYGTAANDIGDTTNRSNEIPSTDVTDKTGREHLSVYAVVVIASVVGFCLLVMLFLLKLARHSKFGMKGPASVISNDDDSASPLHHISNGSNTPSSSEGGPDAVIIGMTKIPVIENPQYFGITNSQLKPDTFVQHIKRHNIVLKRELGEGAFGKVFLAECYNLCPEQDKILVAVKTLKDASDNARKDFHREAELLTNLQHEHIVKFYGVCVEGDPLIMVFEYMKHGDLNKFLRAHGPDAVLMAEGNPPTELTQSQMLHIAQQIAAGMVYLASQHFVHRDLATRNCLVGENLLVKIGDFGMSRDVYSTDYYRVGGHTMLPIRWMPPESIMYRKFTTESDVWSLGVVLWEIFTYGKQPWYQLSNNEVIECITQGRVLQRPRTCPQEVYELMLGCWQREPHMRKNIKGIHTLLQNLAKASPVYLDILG
Sequence of Cyclin-dependent kinase 9 (P50750 whole entry): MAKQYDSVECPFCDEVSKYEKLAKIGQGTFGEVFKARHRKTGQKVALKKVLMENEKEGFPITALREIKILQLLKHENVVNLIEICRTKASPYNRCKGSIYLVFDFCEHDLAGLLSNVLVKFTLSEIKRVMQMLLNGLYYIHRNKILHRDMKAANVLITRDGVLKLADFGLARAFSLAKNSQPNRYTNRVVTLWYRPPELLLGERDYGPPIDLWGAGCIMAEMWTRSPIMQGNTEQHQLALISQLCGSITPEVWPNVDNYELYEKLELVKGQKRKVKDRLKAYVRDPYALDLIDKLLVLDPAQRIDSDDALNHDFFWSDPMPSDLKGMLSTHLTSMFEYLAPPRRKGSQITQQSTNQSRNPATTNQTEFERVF
Sequence of Calcium/calmodulin-dependent protein kinase type II subunit alpha (Q9UQM7 whole entry): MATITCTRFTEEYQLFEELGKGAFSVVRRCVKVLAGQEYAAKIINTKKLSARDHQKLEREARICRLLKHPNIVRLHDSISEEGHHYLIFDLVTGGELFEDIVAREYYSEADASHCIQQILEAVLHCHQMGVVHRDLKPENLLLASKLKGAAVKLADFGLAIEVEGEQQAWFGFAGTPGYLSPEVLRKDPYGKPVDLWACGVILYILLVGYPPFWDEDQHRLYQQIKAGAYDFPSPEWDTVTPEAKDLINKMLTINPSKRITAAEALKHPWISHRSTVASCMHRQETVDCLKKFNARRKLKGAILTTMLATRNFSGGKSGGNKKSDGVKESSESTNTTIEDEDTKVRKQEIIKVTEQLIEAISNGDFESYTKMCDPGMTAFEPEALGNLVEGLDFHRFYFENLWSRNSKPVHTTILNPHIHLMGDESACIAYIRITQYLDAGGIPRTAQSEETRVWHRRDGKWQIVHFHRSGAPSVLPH
Sequence of Dual specificity mitogen-activated protein kinase kinase 1 (Q02750 whole entry): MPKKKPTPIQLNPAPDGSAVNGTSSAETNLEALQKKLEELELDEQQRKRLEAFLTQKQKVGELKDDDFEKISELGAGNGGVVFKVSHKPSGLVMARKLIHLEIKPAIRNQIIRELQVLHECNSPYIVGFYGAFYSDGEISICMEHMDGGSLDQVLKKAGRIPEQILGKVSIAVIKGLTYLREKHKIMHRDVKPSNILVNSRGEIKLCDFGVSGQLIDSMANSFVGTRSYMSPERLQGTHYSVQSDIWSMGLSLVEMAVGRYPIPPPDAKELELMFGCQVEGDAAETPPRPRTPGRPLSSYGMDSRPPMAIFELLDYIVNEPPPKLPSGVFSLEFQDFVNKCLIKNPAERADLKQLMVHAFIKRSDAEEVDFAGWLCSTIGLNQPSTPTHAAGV
Sequence of Cyclin-dependent kinase 19 (Q9BWU1 whole entry): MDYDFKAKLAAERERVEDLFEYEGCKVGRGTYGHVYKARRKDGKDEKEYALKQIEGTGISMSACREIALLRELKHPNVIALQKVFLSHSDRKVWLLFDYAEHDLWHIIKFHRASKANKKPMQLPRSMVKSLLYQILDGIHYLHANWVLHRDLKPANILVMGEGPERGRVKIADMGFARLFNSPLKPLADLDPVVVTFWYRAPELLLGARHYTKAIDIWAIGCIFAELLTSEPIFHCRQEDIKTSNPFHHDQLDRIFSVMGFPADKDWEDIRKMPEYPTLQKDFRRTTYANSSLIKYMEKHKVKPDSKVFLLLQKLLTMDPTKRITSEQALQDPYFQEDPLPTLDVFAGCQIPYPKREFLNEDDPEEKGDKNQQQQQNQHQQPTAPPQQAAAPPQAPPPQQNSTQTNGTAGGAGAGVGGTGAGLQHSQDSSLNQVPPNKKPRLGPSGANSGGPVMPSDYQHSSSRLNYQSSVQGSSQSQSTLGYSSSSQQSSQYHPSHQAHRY
Sequence of Dual specificity protein kinase CLK2 (P49760 whole entry): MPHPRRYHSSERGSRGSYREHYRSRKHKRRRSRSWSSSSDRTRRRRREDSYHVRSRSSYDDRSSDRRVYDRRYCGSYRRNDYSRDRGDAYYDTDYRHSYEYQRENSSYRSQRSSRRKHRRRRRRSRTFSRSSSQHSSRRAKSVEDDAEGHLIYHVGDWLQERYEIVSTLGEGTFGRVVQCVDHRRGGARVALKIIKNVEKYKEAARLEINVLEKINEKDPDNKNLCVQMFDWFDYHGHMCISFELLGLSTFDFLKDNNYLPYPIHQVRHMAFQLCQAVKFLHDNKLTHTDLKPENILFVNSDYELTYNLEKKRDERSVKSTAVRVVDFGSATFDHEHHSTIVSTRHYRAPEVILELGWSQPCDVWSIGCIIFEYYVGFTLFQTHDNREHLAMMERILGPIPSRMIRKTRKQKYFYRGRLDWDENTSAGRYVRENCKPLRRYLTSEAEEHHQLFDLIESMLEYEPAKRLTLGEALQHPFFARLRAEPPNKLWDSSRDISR
Sequence of Cyclin-dependent kinase 7 (P50613 whole entry): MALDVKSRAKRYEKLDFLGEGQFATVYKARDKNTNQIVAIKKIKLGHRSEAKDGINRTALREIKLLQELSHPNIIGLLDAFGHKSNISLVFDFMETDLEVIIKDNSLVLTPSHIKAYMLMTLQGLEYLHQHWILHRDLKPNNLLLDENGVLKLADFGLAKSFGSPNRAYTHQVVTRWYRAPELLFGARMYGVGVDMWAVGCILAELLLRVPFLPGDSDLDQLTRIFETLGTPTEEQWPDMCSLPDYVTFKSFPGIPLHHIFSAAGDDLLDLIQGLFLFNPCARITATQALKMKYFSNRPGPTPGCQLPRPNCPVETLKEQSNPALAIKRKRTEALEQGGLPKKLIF
Sequence of Glycogen synthase kinase-3 alpha (P49840 whole entry): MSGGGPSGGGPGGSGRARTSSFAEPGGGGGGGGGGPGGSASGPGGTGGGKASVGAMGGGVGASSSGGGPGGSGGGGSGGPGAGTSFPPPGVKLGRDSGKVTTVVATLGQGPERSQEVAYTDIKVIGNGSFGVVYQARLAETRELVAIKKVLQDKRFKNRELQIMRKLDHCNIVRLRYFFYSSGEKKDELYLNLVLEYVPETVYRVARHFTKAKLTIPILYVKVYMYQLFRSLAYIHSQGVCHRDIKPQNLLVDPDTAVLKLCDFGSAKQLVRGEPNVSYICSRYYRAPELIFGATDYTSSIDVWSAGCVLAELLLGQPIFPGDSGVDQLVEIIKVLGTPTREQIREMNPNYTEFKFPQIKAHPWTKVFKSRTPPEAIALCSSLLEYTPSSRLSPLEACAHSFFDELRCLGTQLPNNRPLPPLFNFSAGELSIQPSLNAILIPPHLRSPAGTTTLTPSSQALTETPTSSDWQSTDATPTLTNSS

- IC50 [1]: 2.55 µM (active)
- IC50 [2]: 2.55 µM (active)
SMILES: C=Cc1cnn(Cc2cccc3ccccc23)c(=O)c1C(C#N)c1ccccc1 (centres undefined)

- Ki [3]: 20 µM (active)
- Ki (Activin receptor type-1): 10 µM (active)
- Ki [4]: 6.31 µM (active)
- Ki [5]: 3.98 µM (active)
- Ki [6]: 79.4 µM (active)
- Ki (Aurora kinase A): 7.94 µM (active)
- Ki [7]: 31.6 µM (active)
- Ki [8]: 15.8 µM (active)
- Ki [9]: 12.6 µM (active)
- Ki [10]: 25.1 µM (active)
- Ki [11]: 12.6 µM (active)
- Ki [12]: 79.4 µM (active)
- Ki [13]: 39.8 µM (active)
- Ki [14]: 31.6 µM (active)
- Ki [16]: 5.01 µM (active)
- Ki [17]: 10 µM (active)
- Ki [18]: 5.01 µM (active)
- Ki [19]: 25.1 µM (active)
- Ki [20]: 15.8 µM (active)
- Ki [21]: 63.1 µM (active)
- Ki [22]: 63.1 µM (active)
- Ki [23]: 0.794 µM (active)
- Ki [24]: 25.1 µM (active)
- Ki [25]: > 100 µM (inactive)
- Ki [26]: 12.6 µM (active)
- Ki (Activated CDC42 kinase 1): 39.8 µM (active)
- Ki [27]: 20 µM (active)
- Ki [28]: 79.4 µM (active)
- Ki [29]: 15.8 µM (active)
- Ki [30]: 31.6 µM (active)
- Ki [31]: 2 µM (active)
- Ki (Aurora kinase B): 1.58 µM (active)
- Ki [32]: 3.98 µM (active)
- Ki [33]: 3.16 µM (active)
- Ki [34]: 12.6 µM (active)
- Ki [35]: 100 µM (active)
- Ki [36]: 0.398 µM (active)
- Ki (LIM domain kinase 1): 12.6 µM (active)
- Ki [37]: 12.6 µM (active)
- Ki [38]: > 63.1 µM (inactive)
- Ki [39]: 2 µM (active)
- Ki [40]: 10 µM (active)
- Ki [41]: 63.1 µM (active)
- Ki [42]: 100 µM (active)
- Ki [43]: 39.8 µM (active)
- Ki [44]: 2 µM (active)
- Ki [45]: 50.1 µM (active)
- Ki [46]: 39.8 µM (active)
- Ki [47]: 2 µM (active)
- Ki [48]: > 100 µM (inactive)
SMILES: Nc1ncnc2c1N=C(c1ccccc1)CCN2
- Ki [15]: 7.94 µM (active)

- Ki [49]: > 7.94 µM (inactive)
- Ki [50]: > 6.31 µM (inactive)
- Ki [51]: > 1.58 µM (inactive)
- Ki [52]: > 10 µM (inactive)
- Ki [7]: > 3.98 µM (inactive)
- Ki [53]: > 7.94 µM (inactive)
- Ki [54]: > 10 µM (inactive)
- Ki [55]: 2.51 µM (active)
- Ki [13]: > 3.98 µM (inactive)
- Ki [56]: > 7.94 µM (inactive)
- Ki [16]: > 3.98 µM (inactive)
- Ki [18]: 1.26 µM (active)
- Ki [57]: > 7.94 µM (inactive)
- Ki [19]: > 0.501 µM (inactive)
- Ki [58]: > 7.94 µM (inactive)
- Ki [22]: > 3.98 µM (inactive)
- Ki [59]: > 6.31 µM (inactive)
- Ki [60]: > 2.51 µM (inactive)
- Ki [61]: > 3.16 µM (inactive)
- Ki (SRSF protein kinase 1): > 7.94 µM (inactive)
- Ki [62]: > 5.01 µM (inactive)
- Ki [63]: 3.16 µM (active)
- Ki [64]: > 1.58 µM (inactive)
- Ki [65]: > 5.01 µM (inactive)
- Ki [66]: > 6.31 µM (inactive)
- Ki [67]: > 10 µM (inactive)
- Ki [33]: > 2 µM (inactive)
- Ki [68]: > 2.51 µM (inactive)
- Ki [69]: > 1.58 µM (inactive)
- Ki [38]: > 1.58 µM (inactive)
- Ki (Focal adhesion kinase 1): > 6.31 µM (inactive)
- Ki [41]: 0.316 µM (active)
- Ki [70]: 0.158 µM (active)
- Ki [71]: > 3.98 µM (inactive)
- Ki [48]: 0.2 µM (active)
- Ki [72]: > 7.94 µM (inactive)
SMILES: Cc1cc(Nc2cc(N3CCN(C)CC3)nc(Sc3ccc(NC(=O)C4CC4)cc3)n2)[nH]n1 [TOZASERTIB]
